Results on 16 compounds are retold here after US10246455B2, “Histone deacetylase inhibitors” (Taipei Medical University, priority 2014, dated 2019).

One may read the IC50 as the concentration that inhibits the measured activity by half. What is called melting point is the temperature, or range, at which the solid turns liquid.

The test system of data set [1] is KB cell line (oral carcinoma). Description: IC50 in human cancer cell lines (inhibiting HDAC): KB. The conditions noted are these: Homo sapiens, read-out: IC50, inhibiting HDAC in human cancer cell lines, KB, oral carcinoma.

As for `Nc1ccccc1NC(=O)c1ccc(Cn2ccc3ccccc32)cc1` [Compound 14, 4-((1H-Indol-1-yl)methyl)-N-(2-aminophenyl)benzamide], the concentration for half-maximal inhibition (IC50) in data set [1] is less than 6 µM. `O=C(/C=C/c1ccc(S(=O)(=O)n2ccc3cccnc32)cc1)NO` [Compound 12, (E)-3-(4-(1H-Pyrrolo[2,3-b]pyridin-1-ylsulfonyl)phenyl)-N-hydroxyacrylamide] returned a melting point of 169 to 170 °C. As for `O=C(/C=C/c1cccc(S(=O)(=O)n2ccc3cncnc32)c1)NO` [Compound 4, (E)-3-(3-((7H-Pyrrolo[2,3-d]pyrimidin-7-yl)sulfonyl)phenyl)-N-hydroxyacrylamide], the IC50 in data set [1] is less than 6 µM. Turning to `O=C(/C=C/c1cccc(S(=O)(=O)n2ccc3ccccc32)c1)NO` [Compound 1, (E)-3-(3-(1H-indol-1-ylsulfonyl)phenyl)-N-hydroxyacrylamide], the melting point lay within 188 to 191 °C. Besides, in data set [1], the 50% inhibitory concentration (IC50) is less than 6 µM.

With `O=C(/C=C/c1cccc(S(=O)(=O)N2CCc3cccnc32)c1)NO` [Compound 8, (E)-3-(3-(2,3-Dihydro-1H-pyrrolo[2,3-b]pyridin-1-ylsulfonyl)phenyl)-N-hydroxyacrylamide], the melting point fell in the range of 228 to 230 °C. Moreover, the 50% inhibitory concentration (IC50) in data set [1] was less than 6 µM. For the compound `Nc1ccccc1NC(=O)c1ccc(CN2CCc3ccccc32)cc1` [Compound 15, N-(2-Aminophenyl)-4-(indolin-1-ylmethyl)benzamide], the IC50 in data set [1] is less than 6 µM. In turn, `Nc1ccccc1NC(=O)c1ccc(Cn2ccc3cccnc32)cc1` [Compound 20, 4-((1H-Pyrrolo[2,3-b]pyridin-1-yl)methyl)-N-(2-aminophenyl)benzamide] registered a melting point of 158 to 159 °C. In data set [1], the IC50 was less than 6 µM. As for `Nc1ccccc1NC(=O)c1ccc(CN2CCc3cccnc32)cc1` [Compound 21, N-(2-Aminophenyl)-4-((2,3-dihydro-1H-pyrrolo[2,3-b]pyridin-1-yl)methyl)benzamide], the melting point lay in the range of 105 to 107 °C. In data set [1], the half-maximal inhibitory concentration (IC50) is less than 6 µM. As to `COc1ccc(S(=O)(=O)N2CCc3cc(C(=O)NO)cnc32)cc1` [Compound 10a, N-hydroxy-1-(4-methoxyphenylsulfonyl)-2,3-dihydro-1H-pyrrolo[2,3-b]pyridine-5-carboxamide], the IC50 in data set [1] is less than 6 µM. `O=C(/C=C/c1cccc(S(=O)(=O)n2ccc3ncccc32)c1)NO` [Compound 5, (E)-3-(3-(1H-Pyrrolo[3,2-b]pyridin-1-ylsulfonyl)phenyl)-N-hydroxyacrylamide] gave a melting point of 148 to 150 °C. For `O=C(/C=C/c1ccc(S(=O)(=O)n2ncc3ccccc32)cc1)NO` [Compound 9, (E)-3-(4-(1H-Indazol-1-ylsulfonyl)phenyl)-N-hydroxyacrylamide], the concentration for half-maximal inhibition (IC50) in data set [1] is less than 6 µM.

Turning to `O=C(NO)c1ccc(Cn2ccc3cccnc32)cc1` [Compound 23, N-Hydroxy-4-pyrrolo[2,3-b]pyridin-1-ylmethyl-benzamide], in data set [1], the IC50 was less than 6 µM.

For `Nc1ccccc1NC(=O)c1ccc(Cn2ccc3ccncc32)cc1` [Compound 19, 4-((1H-Pyrrolo[2,3-c]pyridin-1-yl)methyl)-N-(2-aminophenyl)-benzamide], the melting point lay in the range of 154 to 155 °C. Also, in data set [1], the IC50 is less than 6 µM.

For the compound `O=C(/C=C/c1ccc(S(=O)(=O)N2CCc3cccnc32)cc1)NO` [Compound 13, (E)-3-(4-(2,3-Dihydro-1H-pyrrolo[2,3-b]pyridin-1-ylsulfonyl)phenyl)-N-hydroxyacrylamide], the melting point was 220 to 223 °C. In addition, in data set [1], the IC50 was less than 6 µM. The compound `O=C(/C=C/c1cccc(S(=O)(=O)n2ccc3ccncc32)c1)NO` [Compound 6, (E)-3-(3-(1H-Pyrrolo[2,3-c]pyridin-1-ylsulfonyl)phenyl)-N-hydroxyacrylamide] yielded a melting point of 128 to 129 °C. With `COc1ccc(S(=O)(=O)N2CCc3cc(/C=C/C(=O)Nc4ccccc4N)cnc32)cc1` [Compound 6a, (E)-N-(2-aminophenyl)-3-(1-(4-methoxyphenylsulfonyl)-2,3-dihydro-1H-pyrrolo[2,3-b]pyridin-5-yl)acrylamide], the concentration for half-maximal inhibition (IC50) in data set [1] is less than 6 µM.
